Article PMC9939793 (Infection and Drug Resistance, 2023)

Key:
[1] = target: neuraminidase of A(H1N1)pdm09-S247N isolate (A/NRW/142/2019) (Influenza A virus, UniProt A0A0X9QTS2, S247N); type: biochemical
[2] = test system: A(H3N2) PA-I38M isolate (A/Berlin/9/2020); type: cell-based, influenza A(H3N2)

Row | SMILES | IC50 increase [1] | reduction of antiviral activity [2]
1 | CC(=O)N[C@H]1[C@H]([C@H](O)[C@H](O)CO)OC(C(=O)O)=C[C@@H]1N=C(N)N [Zanamivir, zanamivir] | up to 7 fold | –
2 | CCC(CC)[C@H](NC(C)=O)[C@@H]1[C@H](O)[C@@H](C(=O)O)C[C@H]1N=C(N)N [Peramivir, peramivir] | up to 7 fold | –
3 | COC(=O)OCOc1c2n(ccc1=O)N([C@@H]1c3ccccc3SCc3c1ccc(F)c3F)[C@@H]1COCCN1C2=O [baloxavir marboxil, Baloxavir marboxil] | – | up to 5 fold
